Assays:
[1] = Study .1: single dose study in healthy volunteers, pharmacokinetic parameters; format: in vivo, human; settings: human, plasma, oral, Study .1, fasted
Method: (§1) 5. Pharmacokinetic Parameters
(§2) The pharmacokinetic parameters of pharmaceutical compositions and pharmaceutical dosage forms are assessed in healthy volunteer and patient populations. In the studies shown below, the participants fasted on the day of sampling, unless as otherwise stated (see for example study .3). The active substance in the studies below is the compound (I.9), preferably in the crystalline form (I.9X), and the dose of active ingredient is indicated in mg.
(§3) For the quantification of plasma concentrations of the active ingredient, 2.7 mL of blood was collected and transferred into an EDTA (ethylendiaminetetraacetic acid)-anticoagulant blood drawing tube. The EDTA-anticoagulated blood samples were centrifuged immediately after collection. Centrifugation lasted for about 10 minutes (at about 2,000×gf to 4,000×gf) at 4-8° C. or within 30 minutes while stored on ice. Concentrations of active substance in EDTA human plasma samples were quantitated using a HPLC/MS/MS method. The assay method comprised a solid phase supported liquid-liquid extraction of human plasma coupled with HPLC/MS/MS determination of the extracted samples. The HPLC/MS/MS assay was validated for the range of 1.11 to 1110 nM in human plasma.
Study .1: Single dose study in a healthy volunteer population of N=72. Healthy volunteers were administered tablets as described in Example 10 (section Examples of formulations).
(§4) AUC0-inf:area under the concentration-time curve of the analyte in plasma over the time interval from 0 extrapolated to infinity.
(§5) Cmax: maximum concentration of the analyte in plasma.
(§6) Tmax: time from dosing to maximum concentration.

[2] = Study .3: single dose, cross-over, food effect study in healthy volunteers, pharmacokinetic parameters; format: in vivo, human; settings: 50 mg single dose
Method: as §1, §2, §3
Study .3: Single dose, cross-over, food effect study in a healthy volunteer population of N=14. Healthy volunteers were administered tablets as described in Example 10 (section Examples of formulations).
as §4, §5, §6

SMILES: OC[C@H]1O[C@@H](c2ccc(Cl)c(Cc3ccc(O[C@H]4CCOC4)cc3)c2)[C@H](O)[C@@H](O)[C@@H]1O [Compound (I.9), 1-chloro-4-(β-D-glucopyranos-1-yl)-2-[4-((S)-tetrahydrofuran-3-yloxy)-benzyl]-benzene]
- Cmax ([1]; 10 mg, 10 mg single dose, read-out: Cmax Median): 239 nM
- Cmax ([1]; 10 mg, 10 mg single dose, read-out: Cmax gMean): 221 nM
- Tmax ([1]; 10 mg, 10 mg single dose, read-out: tmax Mean): 1.42 h
- Tmax ([1]; 10 mg, 10 mg single dose, read-out: tmax Median): 1.5 h
- Tmax ([1]; 10 mg, 10 mg single dose, read-out: tmax gMean): 1.38 h
- AUC(0-inf) ([1]; 25 mg, 25 mg single dose, read-out: AUC0-inf Mean): 3.83 µM·h
- AUC(0-inf) ([1]; 25 mg, 25 mg single dose, read-out: AUC0-inf Median): 3.98 µM·h
- AUC(0-inf) ([1]; 25 mg, 25 mg single dose, read-out: AUC0-inf gMean): 3.75 µM·h
- Cmax ([1]; 25 mg, 25 mg single dose, read-out: Cmax Mean): 505 nM
- Cmax ([1]; 25 mg, 25 mg single dose, read-out: Cmax Median): 520 nM
- Cmax ([1]; 25 mg, 25 mg single dose, read-out: Cmax gMean): 490 nM
- Tmax ([1]; 25 mg, 25 mg single dose, read-out: tmax Mean): 2.19 h
- Tmax ([1]; 25 mg, 25 mg single dose, read-out: tmax Median): 2.05 h
- Tmax ([1]; 25 mg, 25 mg single dose, read-out: tmax gMean): 2.06 h
- AUC(0-inf) ([1]; 50 mg, 50 mg single dose, read-out: AUC0-inf Mean): 8.58 µM·h
- AUC(0-inf) ([1]; 50 mg, 50 mg single dose, read-out: AUC0-inf Median): 8.29 µM·h
- AUC(0-inf) ([1]; 50 mg, 50 mg single dose, read-out: AUC0-inf gMean): 8.46 µM·h
- Cmax ([1]; 50 mg, 50 mg single dose, read-out: Cmax Mean): 1110 nM
- Cmax ([1]; 50 mg, 50 mg single dose, read-out: Cmax Median): 1100 nM
- Cmax ([1]; 50 mg, 50 mg single dose, read-out: Cmax gMean): 1080 nM
- Tmax ([1]; 50 mg, 50 mg single dose, read-out: tmax Mean): 1.75 h
- Tmax ([1]; 50 mg, 50 mg single dose, read-out: tmax Median): 1.5 h
- Tmax ([1]; 50 mg, 50 mg single dose, read-out: tmax gMean): 1.59 h
- AUC0-inf Max ([2]; Study .3/fasted): 14.1 µM·h
- AUC0-inf Min ([2]; Study .3/fasted): 6.45 µM·h
- AUC0-inf,norm Max ([2]; Study .3/fasted): 282 nmol·h/L/mg
- AUC0-inf,norm Median ([2]; Study .3/fasted): 159 nmol·h/L/mg
- AUC0-inf,norm Min ([2]; Study .3/fasted): 129 nmol·h/L/mg
- AUC0-inf,norm gMean ([2]; Study .3/fasted): 166 nmol·h/L/mg
- Cmax,norm Max ([2]; Study .3/fasted): 40 nmol/L/mg
- Cmax,norm Median ([2]; Study .3/fasted): 20 nmol/L/mg
- Cmax,norm Min ([2]; Study .3/fasted): 18 nmol/L/mg
- Cmax,norm gMean ([2]; Study .3/fasted): 23 nmol/L/mg
- tmax Max ([2]; Study .3/fasted): 4.07 h
- tmax Min ([2]; Study .3/fasted): 0.750 h
- Cmax ([2]; Study .3/fasted, read-out: Cmax Max): 2020 nM
- Cmax ([2]; Study .3/fasted, read-out: Cmax Min): 878 nM
- AUC0-inf Max ([2]; Study .3/fed): 10.8 µM·h
- AUC0-inf Min ([2]; Study .3/fed): 5.06 µM·h
- AUC0-inf,norm Max ([2]; Study .3/fed): 216 nmol·h/L/mg
- AUC0-inf,norm Median ([2]; Study .3/fed): 150 nmol·h/L/mg
- AUC0-inf,norm Min ([2]; Study .3/fed): 101 nmol·h/L/mg
- AUC0-inf,norm gMean ([2]; Study .3/fed): 149 nmol·h/L/mg
- Cmax,norm Max ([2]; Study .3/fed): 21 nmol/L/mg
- Cmax,norm Median ([2]; Study .3/fed): 17 nmol/L/mg
- Cmax,norm Min ([2]; Study .3/fed): 9 nmol/L/mg
- Cmax,norm gMean ([2]; Study .3/fed): 16 nmol/L/mg
- tmax Max ([2]; Study .3/fed): 4.00 h
- tmax Min ([2]; Study .3/fed): 1.00 h
- Cmax ([2]; Study .3/fed, read-out: Cmax Max): 1070 nM
- Cmax ([2]; Study .3/fed, read-out: Cmax Min): 436 nM
- AUC(0-inf) ([2]; human, plasma, oral, 50 mg, Study .3/fasted, read-out: AUC0-inf Mean): 8.51 µM·h
- AUC(0-inf) ([2]; human, plasma, oral, 50 mg, Study .3/fasted, read-out: AUC0-inf Median): 7.93 µM·h
- AUC(0-inf) ([2]; human, plasma, oral, 50 mg, Study .3/fasted, read-out: AUC0-inf gMean): 8.31 µM·h
- Cmax ([2]; human, plasma, oral, 50 mg, Study .3/fasted, read-out: Cmax Mean): 1180 nM
- Cmax ([2]; human, plasma, oral, 50 mg, Study .3/fasted, read-out: Cmax Median): 1010 nM
- Cmax ([2]; human, plasma, oral, 50 mg, Study .3/fasted, read-out: Cmax gMean): 1140 nM
- Tmax ([2]; human, plasma, oral, 50 mg, Study .3/fasted, read-out: tmax Mean): 1.53 h
- Tmax ([2]; human, plasma, oral, 50 mg, Study .3/fasted, read-out: tmax Median): 1.02 h
- Tmax ([2]; human, plasma, oral, 50 mg, Study .3/fasted, read-out: tmax gMean): 1.29 h
- AUC(0-inf) ([2]; human, plasma, oral, 50 mg, Study .3/fed, read-out: AUC0-inf Mean): 7.59 µM·h
- AUC(0-inf) ([2]; human, plasma, oral, 50 mg, Study .3/fed, read-out: AUC0-inf Median): 7.49 µM·h
- AUC(0-inf) ([2]; human, plasma, oral, 50 mg, Study .3/fed, read-out: AUC0-inf gMean): 7.46 µM·h
- Cmax ([2]; human, plasma, oral, 50 mg, Study .3/fed, read-out: Cmax Mean): 824 nM
- Cmax ([2]; human, plasma, oral, 50 mg, Study .3/fed, read-out: Cmax Median): 830 nM
- Cmax ([2]; human, plasma, oral, 50 mg, Study .3/fed, read-out: Cmax gMean): 806 nM
- Tmax ([2]; human, plasma, oral, 50 mg, Study .3/fed, read-out: tmax Mean): 2.46 h
- Tmax ([2]; human, plasma, oral, 50 mg, Study .3/fed, read-out: tmax Median): 2.48 h
- Tmax ([2]; human, plasma, oral, 50 mg, Study .3/fed, read-out: tmax gMean): 2.18 h

— patent US20180289678A1, “PHARMACEUTICAL COMPOSITION, PHARMACEUTICAL DOSAGE FORM, PROCESS FOR THEIR PREPARATION, METHODS FOR TREATING AND USES THEREOF” (Boehringer Ingelheim International GmbH, priority 2009, published 2018)
